Measurements published in ChEMBL document CHEMBL1137955, “Advances toward new antidepressants beyond SSRIs: 1-aryloxy-3-piperidinylpropan-2-ols with dual 5-HT1A receptor antagonism/SSRI activities. Part 4” (Bioorg Med Chem Lett, 2004).

Key:
[1] = target: T1, 5-hydroxytryptamine receptor 1A (Homo sapiens) (UniProt P08908); assay: Evaluated for stimulation at 1 uM concentration expressed as percent of the maximal [35S]GTP-gamma-S, binding induced by 5-hydroxytryptamine; type: functional
T1 sequence (whole entry): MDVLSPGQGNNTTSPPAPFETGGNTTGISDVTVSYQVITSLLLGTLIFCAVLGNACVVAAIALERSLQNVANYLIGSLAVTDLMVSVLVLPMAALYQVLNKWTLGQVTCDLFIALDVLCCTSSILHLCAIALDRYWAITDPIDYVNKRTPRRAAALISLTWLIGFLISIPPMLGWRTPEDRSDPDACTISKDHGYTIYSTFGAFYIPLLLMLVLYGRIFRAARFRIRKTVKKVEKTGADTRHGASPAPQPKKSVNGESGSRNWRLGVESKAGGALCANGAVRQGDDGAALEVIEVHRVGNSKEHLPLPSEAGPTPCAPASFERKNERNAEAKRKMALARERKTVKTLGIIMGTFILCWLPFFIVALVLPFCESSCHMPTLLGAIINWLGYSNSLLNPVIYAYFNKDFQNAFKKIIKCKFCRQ

[2] = target: T2, 5-hydroxytryptamine receptor 1A (Homo sapiens, UniProt P08908); assay: Binding affinity was evaluated at 5-hydroxytryptamine 1A receptor labeled with [3H]-8-OH-DPAT
T2 sequence (P08908 whole entry): T1 sequence (whole entry)

[3] = target: Sodium-dependent serotonin transporter (Homo sapiens, UniProt P31645); assay: Binding affinity at 5-HT reuptake site labeled with [3H]paroxetine
Chain of Sodium-dependent serotonin transporter (P31645 whole entry): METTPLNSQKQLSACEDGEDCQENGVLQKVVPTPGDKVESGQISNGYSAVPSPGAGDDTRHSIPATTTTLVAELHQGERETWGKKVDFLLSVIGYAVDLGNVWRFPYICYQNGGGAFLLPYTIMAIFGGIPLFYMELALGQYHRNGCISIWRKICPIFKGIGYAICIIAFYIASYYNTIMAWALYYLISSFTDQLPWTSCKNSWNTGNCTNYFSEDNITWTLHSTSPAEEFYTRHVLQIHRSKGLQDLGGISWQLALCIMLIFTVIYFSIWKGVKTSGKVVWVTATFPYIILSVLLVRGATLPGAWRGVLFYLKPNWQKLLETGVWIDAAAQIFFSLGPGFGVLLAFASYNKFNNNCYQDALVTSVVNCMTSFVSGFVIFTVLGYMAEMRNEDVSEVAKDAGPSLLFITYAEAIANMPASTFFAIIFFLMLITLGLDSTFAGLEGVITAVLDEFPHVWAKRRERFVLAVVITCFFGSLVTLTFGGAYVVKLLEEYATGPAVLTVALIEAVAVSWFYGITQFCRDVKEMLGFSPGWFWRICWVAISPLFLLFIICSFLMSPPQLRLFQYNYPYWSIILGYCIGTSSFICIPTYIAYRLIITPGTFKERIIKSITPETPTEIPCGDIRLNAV

Compound | Emax [1] [%] | Ki [2] [nM] | Ki [3] [nM]
O[C@@H](COc1cccc2[nH]ccc12)CN1CCC(c2cc3ccccc3s2)CC1 | 12 | 3.7 | 16.7
Cc1cc2c(OC[C@H](O)CN3CC[C@@H](c4cccc5sccc45)C[C@@H]3C)cccc2[nH]1 | 15 | 1.82 | 4.35
Cc1cc2c(OC[C@H](O)CN3CC[C@@H](c4ccc5occc5c4)C[C@@H]3C)cccc2[nH]1 | 9 | 1.39 | 1.69
Cc1cc2c(OC[C@@H](O)CN3CC[C@@H](c4cccc5occc45)C[C@@H]3C)cccc2[nH]1 | 8 | 1.23 | 7.18
Cc1cc2c(OC[C@@H](O)CN3CC[C@@H](c4cccc5ccsc45)C[C@@H]3C)cccc2[nH]1 | 8 | 0.91 | 9.24
Cc1cc2c(OC[C@@H](O)CN3CC[C@@H](c4ccc5ccoc5c4)C[C@@H]3C)cccc2[nH]1 | 6 | 1.05 | 3.77
COc1cccc2sc([C@@H]3CCN(C[C@H](O)COc4cccc5[nH]c(C)cc45)[C@@H](C)C3)cc12 | 3 |  | 0.86
O[C@@H](COc1cccc2[nH]ccc12)CN1CCC(c2csc3ccccc23)CC1 |  | 1.84 | 

The remaining molecules from weak to strong by Ki [3], led by results:

Emax [1] [%] | Ki [2] [nM] | Ki [3] [nM] | Compound
12 | 4.45 | 0.75 | Cc1cc2c(OC[C@@H](O)CN3CC[C@@H](c4ccc5ccsc5c4)C[C@@H]3C)cccc2[nH]1
4 | 7.82 | 0.58 | Cc1cc2c(OC[C@@H](O)CN3CC[C@@H](c4ccc5c(C)csc5c4)C[C@@H]3C)cccc2[nH]1
8 | 3.12 | 0.54 | Cc1cc2c(OC[C@@H](O)CN3CC[C@@H](c4ccc5scc(C)c5c4)C[C@@H]3C)cccc2[nH]1
 |  | 0.53 | Cc1cc2c(OC[C@@H](O)CN3CC[C@@H](c4cc5ccccc5s4)C[C@@H]3C)cccc2[nH]1
9 | 5.11 | 0.4 | Cc1cc2c(OC[C@@H](O)CN3CC[C@@H](c4ccc5ccccc5c4)C[C@@H]3C)cccc2[nH]1
11 | 10.9 | 0.34 | COc1cccc2ccc([C@@H]3CCN(C[C@H](O)COc4cccc5[nH]c(C)cc45)[C@@H](C)C3)cc12
12 | 1.43 | 0.3 | Cc1cc2c(OC[C@H](O)CN3CC[C@@H](c4ccc5sccc5c4)C[C@@H]3C)cccc2[nH]1
